Measurements as given in US11524966B1 (Valo Early Discovery, Inc., priority 2017, dated 2022).

Target: T1, USP28 (His-tagged USP28-FL-mammalian) (Homo sapiens, UniProt Q96RU2)
T1 construct: Expression of USP28 (1-1077)-TEV-6*His (pTT5 vector); made in house; host or cells: Expi293f cells (pTT5 vector)
T1 sequence (Q96RU2 1-1077): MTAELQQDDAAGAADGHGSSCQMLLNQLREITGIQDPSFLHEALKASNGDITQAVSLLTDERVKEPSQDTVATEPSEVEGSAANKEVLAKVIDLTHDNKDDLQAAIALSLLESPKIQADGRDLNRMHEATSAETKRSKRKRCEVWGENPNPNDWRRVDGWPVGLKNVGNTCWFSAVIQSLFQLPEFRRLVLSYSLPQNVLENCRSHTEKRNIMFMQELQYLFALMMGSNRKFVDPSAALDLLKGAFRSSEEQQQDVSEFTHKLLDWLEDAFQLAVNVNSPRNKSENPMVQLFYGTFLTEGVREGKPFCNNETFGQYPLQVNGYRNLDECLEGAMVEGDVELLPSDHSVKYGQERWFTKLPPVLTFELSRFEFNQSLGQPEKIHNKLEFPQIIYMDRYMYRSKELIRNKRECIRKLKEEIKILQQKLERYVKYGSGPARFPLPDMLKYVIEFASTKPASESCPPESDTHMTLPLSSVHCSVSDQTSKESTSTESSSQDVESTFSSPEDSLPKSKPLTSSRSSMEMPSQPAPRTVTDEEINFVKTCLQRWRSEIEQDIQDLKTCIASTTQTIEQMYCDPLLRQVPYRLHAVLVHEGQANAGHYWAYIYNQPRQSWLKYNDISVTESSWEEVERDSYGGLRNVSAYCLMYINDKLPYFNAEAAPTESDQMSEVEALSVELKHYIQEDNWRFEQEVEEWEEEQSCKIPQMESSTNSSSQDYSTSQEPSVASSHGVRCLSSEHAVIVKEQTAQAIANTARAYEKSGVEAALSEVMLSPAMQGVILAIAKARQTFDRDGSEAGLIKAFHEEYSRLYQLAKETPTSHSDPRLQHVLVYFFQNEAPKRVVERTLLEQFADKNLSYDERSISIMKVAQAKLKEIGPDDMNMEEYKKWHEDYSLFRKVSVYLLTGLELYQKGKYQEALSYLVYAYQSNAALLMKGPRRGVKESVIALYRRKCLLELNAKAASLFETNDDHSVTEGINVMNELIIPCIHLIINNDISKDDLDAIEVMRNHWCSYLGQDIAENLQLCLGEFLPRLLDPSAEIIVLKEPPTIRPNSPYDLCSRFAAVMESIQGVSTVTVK
Assay: Ubiquitin-Rhodamine 110 Assay for USP28 Activity, Example A-1(a)
Assay type: biochemical
Details: Ubiquitin-Rhodamine 110 assay, Example A-1(a); read-out: USP28 A-1(a) IC50 range
Summary of the method: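 Full-length His-tagged human USP28 (1-1077, Expi293f-expressed), […], with 25 nM Ub-Rh110 (<<Km) in pH 8.0 Tris buffer with BME, BGG, Triton X-100. 10-point dilutions (25 μM-1.3 nM), 45 min at room temperature, citric acid stop, fluorescence 485/535 nm; IC50 by 4-parameter fit.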

Row | SMILES | IC50 [µM]
1 | Cc1ccc2c(N)c(C(=O)N[C@H]3COc4cc(N5C[C@H](N)[C@]6(CCCO6)C5)ccc4C3)sc2n1 [Example 307, 3-amino-N-[(3R)-7-[(5S,9S)-9-amino-1-oxa-7-azaspiro[4.4]nonan-7-yl]-3,4-dihydro-2H-1-benzopyran-3-yl]-6-methylthieno[2,3-b]pyridine-2-carboxamide] | 0.001 to 0.05
2 | Cc1ccc2c(N)c(C(=O)N[C@H]3COc4cc(N5C[C@@H](N)[C@@]6(CCCO6)C5)ccc4C3)sc2n1 [Example 308, 3-amino-N-[(3R)-7-[(5R,9R)-9-amino-1-oxa-7-azaspiro[4.4]nonan-7-yl]-3,4-dihydro-2H-1-benzopyran-3-yl]-6-methylthieno[2,3-b]pyridine-2-carboxamide] | 0.05 to 0.2
3 | Cc1ccc2c(N)c(C(=O)N[C@H]3COc4cc(N5C[C@@H](N)[C@]6(CCCO6)C5)ccc4C3)sc2n1 [Example 309, 3-amino-N-[(3R)-7-[(5S,9R)-9-amino-1-oxa-7-azaspiro[4.4]nonan-7-yl]-3,4-dihydro-2H-1-benzopyran-3-yl]-6-methylthieno[2,3-b]pyridine-2-carboxamide] | 0.001 to 0.05
4 | Cc1ccc2c(N)c(C(=O)N[C@H]3COc4cc(N5C[C@H](N)[C@@]6(CCCO6)C5)ccc4C3)sc2n1 [Example 310, 3-amino-N-[(3R)-7-[(5R,9S)-9-amino-1-oxa-7-azaspiro[4.4]nonan-7-yl]-3,4-dihydro-2H-1-benzopyran-3-yl]-6-methylthieno[2,3-b]pyridine-2-carboxamide] | 0.001 to 0.05
5 | CN[C@H]1CN(c2ccc3c(n2)CC[C@H](NC(=O)c2sc4nc(C)ccc4c2N)C3)C[C@@H]1OC [Example 311, 3-amino-N-[(6S)-2-[(3S,4S)-3-methoxy-4-(methylamino)pyrrolidin-1-yl]-5,6,7,8-tetrahydroquinolin-6-yl]-6-methylthieno[2,3-b]pyridine-2-carboxamide] | 0.05 to 0.2
6 | CN[C@H]1CN(c2ccc3c(n2)CC[C@H](NC(=O)c2sc4nc(C)cc(C)c4c2N)C3)C[C@@H]1OC [Example 312, 3-amino-N-[(6S)-2-[(3S,4S)-3-methoxy-4-(methylamino)pyrrolidin-1-yl]-5,6,7,8-tetrahydroquinolin-6-yl]-4,6-dimethylthieno[2,3-b]pyridine-2-carboxamide] | 0.05 to 0.2
7 | CCOC[C@@H]1CN(c2ccc3c(c2)OC[C@H](NC(=O)c2sc4nc(C)ccc4c2N)C3)C[C@@H]1N [Example 313, 3-amino-N-[(3R)-7-[(3R,4R)-3-amino-4-(ethoxymethyl)pyrrolidin-1-yl]-3,4-dihydro-2H-1-benzopyran-3-yl]-6-methylthieno[2,3-b]pyridine-2-carboxamide] | 0.001 to 0.05
8 | CCOC[C@H]1CN(c2ccc3c(c2)OC[C@H](NC(=O)c2sc4nc(C)ccc4c2N)C3)C[C@H]1N [Example 314, 3-amino-N-[(3R)-7-[(3S,4S)-3-amino-4-(ethoxymethyl)pyrrolidin-1-yl]-3,4-dihydro-2H-1-benzopyran-3-yl]-6-methylthieno[2,3-b]pyridine-2-carboxamide] | 0.001 to 0.05
9 | CO[C@H]1CCN(c2ccc3c(c2)OC[C@H](NC(=O)c2sc4nc(C)cc(C)c4c2N)C3)C[C@@H]1N [Example 317, 3-amino-N-[(3R)-7-[(3S,4S)-3-amino-4-methoxypiperidin-1-yl]-3,4-dihydro-2H-1-benzopyran-3-yl]-4,6-dimethylthieno[2,3-b]pyridine-2-carboxamide] | 0.001 to 0.05
10 | CO[C@@H]1CCN(c2ccc3c(c2)OC[C@H](NC(=O)c2sc4nc(C)cc(C)c4c2N)C3)C[C@H]1N [Example 318, 3-amino-N-[(3R)-7-[(3R,4R)-3-amino-4-methoxypiperidin-1-yl]-3,4-dihydro-2H-1-benzopyran-3-yl]-4,6-dimethylthieno[2,3-b]pyridine-2-carboxamide] | 0.001 to 0.05
11 | Cc1cnc2c(N)c(C(=O)N[C@H]3CCc4cc(N5C[C@H](OC(C)C)[C@@H](N)C5)ccc4C3)sc2n1 [Example 319, 7-amino-N-[(2S)-6-[(3S,4S)-3-amino-4-(propan-2-yloxy)pyrrolidin-1-yl]-1,2,3,4-tetrahydronaphthalen-2-yl]-3-methylthieno[2,3-b]pyrazine-6-carboxamide] | 0.05 to 0.2
12 | Cc1ccc2c(N)c(C(=O)N[C@H]3CCc4nc(N5C[C@H](OC(C)C)[C@@H](N)C5)ccc4C3)sc2n1 [Example 320] | 0.05 to 0.2
13 | Cc1ccc2c(N)c(C(=O)N[C@H]3CCc4nc(N5C[C@H](N)[C@H](OC(C)C)C5)ccc4C3)sc2n1 [Example 321, 3-amino-N-[(6S)-2-[(3S,4R)-3-amino-4-(propan-2-yloxy)pyrrolidin-1-yl]-5,6,7,8-tetrahydroquinolin-6-yl]-6-methylthieno[2,3-b]pyridine-2-carboxamide] | 0.2 to 2
14 | Cc1ccc2c(N)c(C(=O)N[C@H]3CCc4nc(N5C[C@@H](N)[C@@H](OC(C)C)C5)ccc4C3)sc2n1 [Example 322, 3-amino-N-[(6S)-2-[(3R,4S)-3-amino-4-(propan-2-yloxy)pyrrolidin-1-yl]-5,6,7,8-tetrahydroquinolin-6-yl]-6-methylthieno[2,3-b]pyridine-2-carboxamide] | 0.2 to 2
15 | CCO[C@H]1CN(c2ccc3c(c2)OC[C@H](NC(=O)c2sc4nc(C)cc(C)c4c2N)C3)C[C@H]1N [Example 324, 3-amino-N-[(3R)-7-[(3R,4S)-3-amino-4-ethoxypyrrolidin-1-yl]-3,4-dihydro-2H-1-benzopyran-3-yl]-4,6-dimethylthieno[2,3-b]pyridine-2-carboxamide] | 0.05 to 0.2
16 | CO[C@@]1(C)CN(c2ccc3c(n2)OC[C@H](NC(=O)c2sc4nc(C)ccc4c2N)C3)C[C@@H]1N [Example 325, 3-amino-N-[(3R)-7-[(3S,4S)-4-amino-3-methoxy-3-methylpyrrolidin-1-yl]-2H,3H,4H-pyrano[2,3-b]pyridin-3-yl]-6-methylthieno[2,3-b]pyridine-2-carboxamide] | 0.05 to 0.2
17 | CO[C@]1(C)CN(c2ccc3c(n2)OC[C@H](NC(=O)c2sc4nc(C)ccc4c2N)C3)C[C@H]1N [Example 326, 3-amino-N-[(3R)-7-[(3R,4R)-4-amino-3-methoxy-3-methylpyrrolidin-1-yl]-2H,3H,4H-pyrano[2,3-b]pyridin-3-yl]-6-methylthieno[2,3-b]pyridine-2-carboxamide] | 0.05 to 0.2
18 | COC[C@H]1CN(c2ccc3c(n2)CC[C@H](NC(=O)c2sc4nc(C)ccc4c2N)C3)C[C@@H]1N [Example 327, 3-amino-N-[(6S)-2-[(3R,4S)-3-amino-4-(methoxymethyl)pyrrolidin-1-yl]-5,6,7,8-tetrahydroquinolin-6-yl]-6-methylthieno[2,3-b]pyridine-2-carboxamide] | 0.05 to 0.2
19 | COC[C@@H]1CN(c2ccc3c(n2)CC[C@H](NC(=O)c2sc4nc(C)ccc4c2N)C3)C[C@H]1N [Example 328, 3-amino-N-[(6S)-2-[(3S,4R)-3-amino-4-(methoxymethyl)pyrrolidin-1-yl]-5,6,7,8-tetrahydroquinolin-6-yl]-6-methylthieno[2,3-b]pyridine-2-carboxamide] | 0.2 to 2
20 | Cc1ccc2c(N)c(C(=O)N[C@H]3CCc4nc(N5C[C@H]6NCCC(F)(F)[C@H]6C5)ccc4C3)sc2n1 [Example 329, N-[(6S)-2-[(4aS,7aS)-4,4-difluoro-octahydro-1H-pyrrolo[3,4-b]pyridin-6-yl]-5,6,7,8-tetrahydroquinolin-6-yl]-3-amino-6-methylthieno[2,3-b]pyridine-2-carboxamide] | 0.05 to 0.2
